Source: patent publication US7384919B2, “Increased solubility flavanolignan preparations” (IVAX Pharmaceuticals s.r.o., priority 2001, dated 2008)

Test: Dissolution test of samples filled in hard gelatin capsules (Ph. Eur. Type 2 device)
Assay type: physicochemical
Conditions: Example 2 samples (pure silybin/silydianin), tested as described for Example 1 (capsule, pH 7.5, 100 rpm)
Description: For this purpose 100 mg of each Samples were filled in hard gelatin capsules (number 00). Individual capsules underwent the test on the device as per the Ph. Eur. Type 2 in 2 litres of the dissolution medium pH 7.5 and under 100 revolutions per minute.

COc1cc(C2Oc3cc([C@H]4Oc5cc(O)cc(O)c5C(=O)[C@@H]4O)ccc3OC2CO)ccc1O (some centres unmarked) [Silybin, silybin]
Dissolution Values, 30 minutes (after 30 minutes): 4.6%
Dissolution Values, 60 minutes (after 60 minutes): 4.5%
